According to the kinase profiling compilation of Christmann-Franck et al. (2016):

Columns and labels:
Experiment in all cases: radiometric filter-binding kinase assay, Kinase HotSpot
Settings in all cases: compound 0.5 µM; ATP 10 µM
[1] = biological target: PAK2 (human) (UniProt Q13177)
[2] = biological target: MAPK9 (human) (UniProt P45984)
[3] = biological target: MERTK (human) (UniProt Q12866)
[4] = biological target: NTRK1 (human) (UniProt P04629)
[5] = biological target: HIPK2 (human) (UniProt Q9H2X6)
[6] = biological target: MARK4 (human) (UniProt Q96L34)
Chain of MARK4 (human) (Q96L34 whole entry, looked up): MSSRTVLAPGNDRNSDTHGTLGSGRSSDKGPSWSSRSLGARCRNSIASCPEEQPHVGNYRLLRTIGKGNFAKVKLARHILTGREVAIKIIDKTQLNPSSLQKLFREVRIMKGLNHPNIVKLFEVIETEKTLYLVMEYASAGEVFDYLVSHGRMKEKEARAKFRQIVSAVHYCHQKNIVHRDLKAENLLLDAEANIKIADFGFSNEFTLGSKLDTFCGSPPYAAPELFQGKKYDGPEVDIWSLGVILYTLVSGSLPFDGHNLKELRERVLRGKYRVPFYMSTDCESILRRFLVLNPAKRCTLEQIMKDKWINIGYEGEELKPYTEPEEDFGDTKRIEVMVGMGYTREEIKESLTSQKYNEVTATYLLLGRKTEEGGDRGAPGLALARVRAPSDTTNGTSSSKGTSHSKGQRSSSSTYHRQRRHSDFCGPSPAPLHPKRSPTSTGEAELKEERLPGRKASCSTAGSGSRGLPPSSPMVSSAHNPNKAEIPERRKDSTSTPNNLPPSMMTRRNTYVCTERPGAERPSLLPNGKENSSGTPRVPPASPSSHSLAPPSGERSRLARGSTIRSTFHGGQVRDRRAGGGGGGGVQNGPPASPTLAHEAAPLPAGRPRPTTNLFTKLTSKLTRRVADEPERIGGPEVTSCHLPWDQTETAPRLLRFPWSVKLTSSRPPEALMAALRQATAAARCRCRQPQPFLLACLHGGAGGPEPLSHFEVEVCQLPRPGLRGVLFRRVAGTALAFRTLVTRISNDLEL

[7] = biological target: NEK11 (human) (UniProt Q8NG66)
[8] = biological target: MST1R (human) (UniProt Q04912)
[9] = biological target: MET (human) (UniProt P08581)
[10] = biological target: CSNK1G3 (human) (UniProt Q9Y6M4)
[11] = biological target: ZAP70 (human) (UniProt P43403)
[12] = biological target: MAP3K10 (human) (UniProt Q02779)
Chain of MAP3K10 (human) (Q02779 whole entry, looked up): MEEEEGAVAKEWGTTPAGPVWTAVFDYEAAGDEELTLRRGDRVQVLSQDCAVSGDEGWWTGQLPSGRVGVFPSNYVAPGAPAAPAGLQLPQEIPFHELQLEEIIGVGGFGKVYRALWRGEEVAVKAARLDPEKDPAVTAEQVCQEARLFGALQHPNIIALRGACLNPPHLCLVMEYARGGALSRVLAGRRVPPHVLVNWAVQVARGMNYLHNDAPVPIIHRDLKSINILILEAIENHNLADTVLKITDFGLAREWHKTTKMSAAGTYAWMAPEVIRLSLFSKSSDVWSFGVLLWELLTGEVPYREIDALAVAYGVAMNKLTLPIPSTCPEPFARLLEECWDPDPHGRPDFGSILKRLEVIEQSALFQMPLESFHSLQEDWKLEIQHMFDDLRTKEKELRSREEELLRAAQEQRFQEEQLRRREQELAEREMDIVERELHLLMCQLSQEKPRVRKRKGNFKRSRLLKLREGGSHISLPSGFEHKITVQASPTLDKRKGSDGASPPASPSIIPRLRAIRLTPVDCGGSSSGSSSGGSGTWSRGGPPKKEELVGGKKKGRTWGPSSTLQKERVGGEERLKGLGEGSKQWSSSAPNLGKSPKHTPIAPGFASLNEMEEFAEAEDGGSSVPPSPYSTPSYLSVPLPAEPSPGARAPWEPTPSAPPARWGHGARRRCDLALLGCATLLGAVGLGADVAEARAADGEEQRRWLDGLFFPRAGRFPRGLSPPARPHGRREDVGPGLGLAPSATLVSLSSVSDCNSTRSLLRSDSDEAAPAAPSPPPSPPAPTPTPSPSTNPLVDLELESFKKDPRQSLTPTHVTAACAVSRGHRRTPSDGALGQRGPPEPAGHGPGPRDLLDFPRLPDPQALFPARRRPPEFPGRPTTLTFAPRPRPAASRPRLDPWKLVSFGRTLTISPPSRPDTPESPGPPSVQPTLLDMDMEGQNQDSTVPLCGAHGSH

[13] = biological target: WNK3 (human) (UniProt Q9BYP7)
[14] = biological target: NEK4 (human) (UniProt P51957)
[15] = biological target: MAPKAPK2 (human) (UniProt P49137)
[16] = biological target: ROCK1 (human) (UniProt Q13464)
[17] = biological target: GSK3B (human) (UniProt P49841)
Chain of GSK3B (human) (P49841 whole entry, looked up): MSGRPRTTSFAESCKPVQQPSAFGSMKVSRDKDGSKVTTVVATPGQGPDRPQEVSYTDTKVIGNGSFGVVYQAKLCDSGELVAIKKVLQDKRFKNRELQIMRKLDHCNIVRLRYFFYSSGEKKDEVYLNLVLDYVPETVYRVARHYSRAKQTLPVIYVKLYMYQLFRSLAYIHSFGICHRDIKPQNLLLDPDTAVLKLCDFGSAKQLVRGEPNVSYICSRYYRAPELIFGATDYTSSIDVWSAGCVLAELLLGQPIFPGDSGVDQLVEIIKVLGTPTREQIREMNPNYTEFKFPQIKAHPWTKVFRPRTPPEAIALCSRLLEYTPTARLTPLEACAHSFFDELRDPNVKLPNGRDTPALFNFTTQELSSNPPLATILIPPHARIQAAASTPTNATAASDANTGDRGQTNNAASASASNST

[18] = biological target: DYRK3 (human) (UniProt O43781)
[19] = biological target: TEK (human) (UniProt Q02763)
[20] = biological target: EPHA1 (human) (UniProt P21709)
[21] = biological target: CSNK2A2 (human) (UniProt P19784)
[22] = biological target: CLK4 (human) (UniProt Q9HAZ1)
[23] = biological target: AKT2 (human) (UniProt P31751)
[24] = biological target: PAK1 (human) (UniProt Q13153)
[25] = biological target: IKBKB (human) (UniProt O14920)
[26] = biological target: DDR2 (human) (UniProt Q16832)
[27] = biological target: IKBKE (human) (UniProt Q14164)
[28] = biological target: DMPK (human) (UniProt Q09013)
[29] = biological target: DAPK1 (human) (UniProt P53355)
[30] = biological target: EPHA3 (human) (UniProt P29320)
[31] = biological target: KIT (human) (UniProt P10721)
Chain of KIT (human) (P10721 whole entry, looked up): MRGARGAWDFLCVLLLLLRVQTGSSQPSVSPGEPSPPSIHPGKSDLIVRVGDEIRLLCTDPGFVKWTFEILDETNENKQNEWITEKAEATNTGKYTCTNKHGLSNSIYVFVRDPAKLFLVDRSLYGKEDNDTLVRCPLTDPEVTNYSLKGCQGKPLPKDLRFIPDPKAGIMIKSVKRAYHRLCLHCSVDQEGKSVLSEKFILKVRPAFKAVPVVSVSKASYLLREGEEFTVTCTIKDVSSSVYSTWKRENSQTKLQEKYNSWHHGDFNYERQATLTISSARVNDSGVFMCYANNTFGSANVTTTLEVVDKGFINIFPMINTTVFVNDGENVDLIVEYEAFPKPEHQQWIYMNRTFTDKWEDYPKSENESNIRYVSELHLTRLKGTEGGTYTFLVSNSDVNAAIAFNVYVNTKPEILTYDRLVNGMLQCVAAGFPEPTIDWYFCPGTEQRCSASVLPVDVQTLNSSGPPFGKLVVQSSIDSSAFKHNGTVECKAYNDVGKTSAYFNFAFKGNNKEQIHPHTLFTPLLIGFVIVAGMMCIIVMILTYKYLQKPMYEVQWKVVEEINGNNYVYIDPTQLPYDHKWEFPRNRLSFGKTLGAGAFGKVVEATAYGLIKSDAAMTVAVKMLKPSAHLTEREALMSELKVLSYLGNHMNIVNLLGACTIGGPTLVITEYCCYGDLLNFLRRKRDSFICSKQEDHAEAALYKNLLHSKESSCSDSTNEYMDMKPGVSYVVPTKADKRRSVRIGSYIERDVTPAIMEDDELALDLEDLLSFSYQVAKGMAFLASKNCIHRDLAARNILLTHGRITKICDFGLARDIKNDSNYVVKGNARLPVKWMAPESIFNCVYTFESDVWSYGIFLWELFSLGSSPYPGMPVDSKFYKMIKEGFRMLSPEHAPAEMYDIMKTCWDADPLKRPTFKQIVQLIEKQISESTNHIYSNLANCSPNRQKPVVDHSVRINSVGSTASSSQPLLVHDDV

[32] = biological target: PAK6 (human) (UniProt Q9NQU5)
[33] = biological target: CHUK (human) (UniProt O15111)
[34] = biological target: RAF1 (human) (UniProt P04049)
[35] = biological target: EPHB4 (human) (UniProt P54760)
[36] = biological target: SYK (human) (UniProt P43405)
[37] = biological target: BRSK2 (human) (UniProt Q8IWQ3)
Chain of BRSK2 (human) (Q8IWQ3 whole entry, looked up): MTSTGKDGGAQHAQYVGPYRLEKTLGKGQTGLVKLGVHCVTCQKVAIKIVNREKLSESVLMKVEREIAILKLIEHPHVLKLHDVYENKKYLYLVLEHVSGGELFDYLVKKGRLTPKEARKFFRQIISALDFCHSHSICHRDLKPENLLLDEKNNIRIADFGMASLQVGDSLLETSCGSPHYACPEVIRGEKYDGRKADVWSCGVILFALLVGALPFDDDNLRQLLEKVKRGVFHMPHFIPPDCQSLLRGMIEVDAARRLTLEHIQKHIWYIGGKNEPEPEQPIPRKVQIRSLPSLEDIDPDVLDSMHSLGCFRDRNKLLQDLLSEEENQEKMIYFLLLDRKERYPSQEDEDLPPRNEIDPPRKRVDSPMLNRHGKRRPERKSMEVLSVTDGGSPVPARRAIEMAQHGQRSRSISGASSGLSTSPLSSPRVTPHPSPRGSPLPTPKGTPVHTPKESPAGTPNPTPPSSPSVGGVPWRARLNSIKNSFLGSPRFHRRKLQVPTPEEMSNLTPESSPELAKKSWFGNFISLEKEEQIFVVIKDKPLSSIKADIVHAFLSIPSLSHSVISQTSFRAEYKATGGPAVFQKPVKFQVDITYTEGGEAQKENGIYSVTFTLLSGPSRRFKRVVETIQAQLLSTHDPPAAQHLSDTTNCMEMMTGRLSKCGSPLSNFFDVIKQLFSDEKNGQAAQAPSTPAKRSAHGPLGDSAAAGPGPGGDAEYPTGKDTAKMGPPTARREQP

[38] = biological target: SGK2 (human) (UniProt Q9HBY8)
[39] = biological target: EGFR (human) (UniProt P00533)
Chain of EGFR (human) (P00533 whole entry, looked up): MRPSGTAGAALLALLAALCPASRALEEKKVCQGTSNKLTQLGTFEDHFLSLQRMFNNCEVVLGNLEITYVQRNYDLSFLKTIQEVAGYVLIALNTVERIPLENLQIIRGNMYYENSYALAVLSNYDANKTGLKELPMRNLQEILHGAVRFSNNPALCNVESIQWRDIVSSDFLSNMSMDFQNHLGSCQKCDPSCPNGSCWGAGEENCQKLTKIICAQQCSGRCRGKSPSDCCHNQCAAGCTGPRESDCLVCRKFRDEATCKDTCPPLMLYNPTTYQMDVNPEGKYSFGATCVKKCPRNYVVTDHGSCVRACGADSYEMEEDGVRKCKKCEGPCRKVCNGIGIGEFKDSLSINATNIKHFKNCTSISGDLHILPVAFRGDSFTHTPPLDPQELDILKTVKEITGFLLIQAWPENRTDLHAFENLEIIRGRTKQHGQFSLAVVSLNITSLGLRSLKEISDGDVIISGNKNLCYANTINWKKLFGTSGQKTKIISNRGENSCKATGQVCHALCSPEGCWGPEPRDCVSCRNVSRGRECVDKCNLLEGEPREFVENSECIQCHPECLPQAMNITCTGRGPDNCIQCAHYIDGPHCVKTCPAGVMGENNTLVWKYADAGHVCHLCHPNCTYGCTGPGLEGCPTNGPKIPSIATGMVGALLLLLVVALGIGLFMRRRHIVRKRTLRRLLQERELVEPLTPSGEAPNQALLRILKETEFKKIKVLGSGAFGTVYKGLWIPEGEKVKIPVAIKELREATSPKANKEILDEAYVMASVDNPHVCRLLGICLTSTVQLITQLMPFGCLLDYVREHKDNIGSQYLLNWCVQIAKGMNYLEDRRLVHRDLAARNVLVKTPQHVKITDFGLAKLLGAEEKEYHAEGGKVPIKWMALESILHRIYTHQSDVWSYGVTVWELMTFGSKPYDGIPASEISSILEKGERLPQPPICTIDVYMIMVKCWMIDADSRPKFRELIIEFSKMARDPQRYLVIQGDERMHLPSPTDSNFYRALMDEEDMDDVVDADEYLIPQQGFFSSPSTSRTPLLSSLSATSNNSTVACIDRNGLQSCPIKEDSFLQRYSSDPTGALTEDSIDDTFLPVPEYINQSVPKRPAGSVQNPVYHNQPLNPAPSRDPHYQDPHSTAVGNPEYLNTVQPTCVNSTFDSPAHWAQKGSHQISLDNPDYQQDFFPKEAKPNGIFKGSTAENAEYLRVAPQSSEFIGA

[40] = biological target: TGFBR1 (human) (UniProt P36897)
[41] = biological target: CDK1 CCNA2 (human) (UniProt P06493+P20248)
[42] = biological target: TYK2 JH1 catalytic (human) (UniProt P29597)

Structure (SMILES): CC[n+]1c(/C=C/N(C)c2ccccc2)n(-c2ccccc2)c2ccc(-c3nc4ccccc4s3)cc21
- residual activity [1]: 97.3%
- residual activity [2]: 94.6%
- residual activity [3]: 96.5%
- residual activity [4]: 99.1%
- residual activity [5]: 103%
- residual activity [6]: 110%
- residual activity [7]: 91.6%
- residual activity [8]: 94.4%
- residual activity [9]: 108%
- residual activity [10]: 92.4%
- residual activity [11]: 95.5%
- residual activity [12]: 103%
- residual activity [13]: 85.9%
- residual activity [14]: 90.5%
- residual activity [15]: 97.2%
- residual activity [16]: 98.1%
- residual activity [17]: 105%
- residual activity [18]: 98.7%
- residual activity [19]: 96%
- residual activity [20]: 77.1%
- residual activity [21]: 105%
- residual activity [22]: 95.5%
- residual activity [23]: 99.6%
- residual activity [24]: 87.5%
- residual activity [25]: 98.6%
- residual activity [26]: 97.4%
- residual activity [27]: 94.7%
- residual activity [28]: 93.9%
- residual activity [29]: 74.7%
- residual activity [30]: 99.4%
- residual activity [31]: 104%
- residual activity [32]: 95.5%
- residual activity [33]: 86%
- residual activity [34]: 96.8%
- residual activity [35]: 103%
- residual activity [36]: 104%
- residual activity [37]: 95.7%
- residual activity [38]: 123%
- residual activity [39]: 103%
- residual activity [40]: 102%
- residual activity [41]: 98.8%
- residual activity [42]: 88.5%

Structure (SMILES): Cc1ccc(NC2=CC(=O)c3sc(C)nc3C2=O)cc1
- residual activity [1]: 104%
- residual activity [2]: 96.5%
- residual activity [3]: 80.5%
- residual activity [4]: 80.6%
- residual activity [5]: 98.5%
- residual activity [6]: 102%
- residual activity [7]: 98.3%
- residual activity [8]: 88.9%
- residual activity [9]: 99.7%
- residual activity [10]: 90.1%
- residual activity [11]: 95.4%
- residual activity [12]: 94.6%
- residual activity [13]: 102%
- residual activity [14]: 95.3%
- residual activity [15]: 97.6%
- residual activity [16]: 100%
- residual activity [17]: 82%
- residual activity [18]: 96.2%
- residual activity [19]: 95.9%
- residual activity [20]: 86.1%
- residual activity [21]: 87.8%
- residual activity [22]: 99.1%
- residual activity [23]: 91.3%
- residual activity [24]: 87.5%
- residual activity [25]: 97.3%
- residual activity [26]: 95.6%
- residual activity [27]: 102%
- residual activity [28]: 103%
- residual activity [29]: 105%
- residual activity [30]: 96.6%
- residual activity [31]: 74.7%
- residual activity [32]: 110%
- residual activity [33]: 91.9%
- residual activity [34]: 90.5%
- residual activity [35]: 89.7%
- residual activity [36]: 97.9%
- residual activity [37]: 93.1%
- residual activity [38]: 94.6%
- residual activity [39]: 97.9%
- residual activity [40]: 94.8%
- residual activity [41]: 75.9%
- residual activity [42]: 109%

Structure (SMILES): Oc1cccc(-c2nc(N3CCOCC3)c3oc4ncccc4c3n2)c1
- residual activity [1]: 97.5%
- residual activity [2]: 89.4%
- residual activity [3]: 87.8%
- residual activity [4]: 94.9%
- residual activity [5]: 102%
- residual activity [6]: 93.4%
- residual activity [7]: 109%
- residual activity [8]: 94.3%
- residual activity [9]: 97.8%
- residual activity [10]: 99.9%
- residual activity [11]: 91.4%
- residual activity [12]: 92%
- residual activity [13]: 93.9%
- residual activity [14]: 90.4%
- residual activity [15]: 97.8%
- residual activity [16]: 94.9%
- residual activity [17]: 94.8%
- residual activity [18]: 94.9%
- residual activity [19]: 87.7%
- residual activity [20]: 87.8%
- residual activity [21]: 56.2%
- residual activity [22]: 81.5%
- residual activity [23]: 99.1%
- residual activity [24]: 97.6%
- residual activity [25]: 98.3%
- residual activity [26]: 94.6%
- residual activity [27]: 98.8%
- residual activity [28]: 99.5%
- residual activity [29]: 78%
- residual activity [30]: 93.7%
- residual activity [31]: 88.9%
- residual activity [32]: 105%
- residual activity [33]: 94.8%
- residual activity [34]: 79.1%
- residual activity [35]: 104%
- residual activity [36]: 94.2%
- residual activity [37]: 97.1%
- residual activity [38]: 96.7%
- residual activity [39]: 83.8%
- residual activity [40]: 95%
- residual activity [41]: 84.4%
- residual activity [42]: 73.6%

Structure (SMILES): CCN(CC)CCNC(=O)c1c(C)[nH]c(/C=C2\C(=O)Nc3ccc(Cl)cc32)c1C
- residual activity [1]: 92.7%
- residual activity [2]: 109%
- residual activity [3]: 11.5%
- residual activity [4]: 8.73%
- residual activity [5]: 20%
- residual activity [6]: 7.19%
- residual activity [7]: 83.4%
- residual activity [8]: 96.7%
- residual activity [9]: 77%
- residual activity [10]: 47.7%
- residual activity [11]: 91.2%
- residual activity [12]: 82.8%
- residual activity [13]: 86.3%
- residual activity [14]: 97%
- residual activity [15]: 103%
- residual activity [16]: 89.7%
- residual activity [17]: 93.1%
- residual activity [18]: 81.8%
- residual activity [19]: 98.2%
- residual activity [20]: 89.4%
- residual activity [21]: 64.3%
- residual activity [22]: 16.8%
- residual activity [23]: 86.9%
- residual activity [24]: 93.4%
- residual activity [25]: 101%
- residual activity [26]: 104%
- residual activity [27]: 29.4%
- residual activity [28]: 102%
- residual activity [29]: 47.7%
- residual activity [30]: 92.5%
- residual activity [31]: 28.7%
- residual activity [32]: 101%
- residual activity [33]: 102%
- residual activity [34]: 117%
- residual activity [35]: 76.9%
- residual activity [36]: 59.2%
- residual activity [37]: 53.7%
- residual activity [38]: 62.8%
- residual activity [39]: 97%
- residual activity [40]: 95.5%
- residual activity [41]: 87.5%
- residual activity [42]: 30.8%
